What was measured:
[1] = Measurement of zeta potential of liposomes; format: physicochemical; conditions: liposome compound/cholesterol/PEG-Glu2C18 (5/5/0.03 molar ratio); acetate buffers 20 mM; 37°C
Procedure: Portions of the prepared liposome ([lipid]=10 mg/ml) were respectively added to acetate buffers with different pHs (7.4, 7, 6, 5, 4) (30 mM) to the final concentration of [lipid]=1 mg/mL, and then the zeta potential at 37° C. was measured. Zetasizer 4 manufactured by Malvern was used. A capillary cell was filled with a liposome-dispersed liquid obtained by dilution to the measurement concentration, and the measurement was performed at 37° C. 3 times.
Portions of the prepared liposome ([lipid]=10 mg/ml) were respectively added to acetate buffers with different pHs (7.4, 7, 6, 5, 4) (20 mM) to the final concentration of [lipid]=1 mg/mL, and then the zeta potential at 37° C. was measured.
Portions of each of the prepared liposomes ([lipid]=10 mg/ml) were respectively added to acetate buffers with different pHs (7.4, 7, 6, 5, 4) (20 mM) to the final concentration of [lipid]=1 mg/mL, and then the zeta potential at 37° C. was measured.

[2] = Preparation of liposome from mixed lipid (dispersion in water, high-pressure extrusion); format: physicochemical; conditions: mixed lipid compound/cholesterol/PEG-Glu2C18 dispersed in water, high-pressure extrusion 0.22 μm
Procedure: (§1) Compound 7, 8 or 9 (0.177 mmol), cholesterol (0.179 mmol) and PEG-Glu2C18 (1.0 μmol) were dissolved in benzene, and the mixture was freeze-dried to prepare a mixed lipid. 20 mg of this mixed lipid was dispersed in 1 mL of water for injection, and the resultant mixture was stirred for 6 hours. After that, liposome having a particle size of about 240 nm was prepared by means of the high-pressure extrusion method (final pore diameter: 0.22 μm).
as §1, with “Compound 3, 12” for “Compound 7, 8”, “or 13” for “or 9”, “(1.0 mmol)” for “(1.0 μmol)”

[3] = Degree of fusion with anionic liposome (Example 9); conditions: liposome compound/cholesterol/PEG-Glu2C18, 37°C, 30 minutes
Procedure: In a manner similar to that in Example 2, the degree of fusion of the pH-responsive liposome with respect to the anionic liposome (DOPC/DPPG, 5/1 (molar ratio)) was calculated. The measurement method was as follows. 50 μL of 1 mM anionic liposome and 50 μL of 9 mM (converted to the mixed lipid basis) pH-responsive liposome were added to 1.9 mL of each of acetate buffers with different pHs and allowed to stand at 37° C. 30 minutes later, […] of the mixture was dividedly poured and added to 1.9 mL of HEPES buffer (pH 7.4). The resultant mixture was transferred to a quartz cell and subjected to fluorescence measurement (λex: 460 nm, 530 nm). The measurement was carried out using RF-5300PC manufactured by Shimadzu.

| pH at which the zeta potential changed from negative to positive [1] | liposome formation with the compound as main component [2] | Structure (SMILES) | degree of fusion ([3]; pH 6.5 (maximum)) | degree of fusion ([3]; pH 7.4) |
| --- | --- | --- | --- | --- |
| about 5.5 | liposome was formed | CCCCCCCCCCCCCCCCOC(=O)CCC(NC(=O)C(CCCCNC(=O)C(N)CC(=O)O)NC(=O)C(N)CCC(=O)O)C(=O)OCCCCCCCCCCCCCCCC (stereo not shown) [Compound 7] |  |  |
| about 4.8 | liposome was formed | CCCCCCCCCCCCCCCCOC(=O)CCC(NC(=O)C(CCCCNC(=O)C(N)CCC(=O)O)NC(=O)C(N)CC(=O)O)C(=O)OCCCCCCCCCCCCCCCC (stereo not shown) [Compound 8] |  |  |
| about 7.0 | liposome was formed | CCCCCCCCCCCCCCOC(=O)CCC(NC(=O)C(CCCCNC(=O)C(N)CCC(=O)O)NC(=O)C(N)CCC(=O)O)C(=O)OCCCCCCCCCCCCCC (stereo not shown) [Compound 12] | over 65% | about 45% |

Further lines, the compound ahead of its results:

| Structure (SMILES) | pH at which the zeta potential changed from negative to positive [1] | liposome formation with the compound as main component [2] | degree of fusion ([3]; pH 6.5 (maximum)) | degree of fusion ([3]; pH 7.4) |
| --- | --- | --- | --- | --- |
| CCCCCCCCCCCCCCCCOC(=O)CCC(NC(=O)C(CCCCNC(=O)C(N)CC(=O)O)NC(=O)C(N)CC(=O)O)C(=O)OCCCCCCCCCCCCCCCC (stereo not shown) [Compound 9] |  | aggregated |  |  |
| CCCCCCCCCCCCCCCCCCOC(=O)CCC(NC(=O)C(CCCCNC(=O)C(N)CCC(=O)O)NC(=O)C(N)CCC(=O)O)C(=O)OCCCCCCCCCCCCCCCCCC (stereo not shown) [Compound 13] |  | poor dispersibility |  |  |
